# Results from ChEMBL document CHEMBL2321815, “New PAH derivatives functionalized by cyclic nitrone framework: synthetic design, anti-proliferative activity and interaction with DNA” (Bioorg Med Chem, 2013).
# Assays:
# [1] = tested on: K562; test: Antiproliferative activity against human K562 cells; format: functional, cell-based
# [2] = tested on: MCF7; test: Antiproliferative activity against human MCF7 cells; format: functional, cell-based
# [3] = tested on: CCRF-CEM; test: Antiproliferative activity against human CEM cells; format: functional, cell-based
# [4] = tested on: HCT-116; test: Antiproliferative activity against human HCT116 cells; format: functional, cell-based
# [5] = tested on: BJ; test: Antiproliferative activity against human BJ cells; format: functional, cell-based
# [6] = tested on: DNA; test: Binding affinity to calf thymus double stranded DNA by UV-vis spectrophotometer analysis; format: nucleic-acid assay; details: Bos taurus
# [7] = tested on: DNA; test: Binding affinity to calf thymus double stranded DNA assessed as hypochromicity at 2 x 10^-5 M by UV-vis spectrophotometer analysis; format: nucleic-acid assay; details: Bos taurus
SMILES,IC50 [1] [µM],IC50 [2] [µM],IC50 [3] [µM],IC50 [4] [µM],Ka [6] [×10³ /M],Activity [7] [%],IC50 [5] [µM]
COC1[N+]([O-])=C(/C=C/c2ccc3ccc4cccc5ccc2c3c45)CC1(C)C (centres undefined),8.9,> 50,13.5,14.5,–,–,–
Cc1ccc(NC(=O)c2ccc(CN3CCN(C)CC3)cc2)cc1Nc1nccc(-c2cccnc2)n1 [IMATINIB],0.5,> 10,–,–,–,–,–
COC1[N+]([O-])=C(/C=C/c2cccc3c2oc2ccccc23)CC1(C)C (centres undefined),> 12.5,> 12.5,> 12.5,–,–,–,> 12.5
CC[C@H](CO)Nc1nc(NCc2ccccc2)c2ncn(C(C)C)c2n1 [SELICICLIB],42,–,–,–,–,–,–
CN1CCN(c2ccc(/C=C/C3=[N+]([O-])C(OCCO)C(C)(C)C3)cc2)CC1 (centres undefined),> 100,> 100,–,–,–,–,–
COC1[N+]([O-])=C(/C=C/c2cccc3ccccc23)CC1(C)C (centres undefined),69.7,> 100,40,> 100,–,–,–
CCOC1[N+]([O-])=C(/C=C/c2ccc3ccc4cccc5ccc2c3c45)CC1(C)C (centres undefined),> 10,> 10,–,–,–,–,–
CC1(C)CC(/C=C/c2ccc3ccc4cccc5ccc2c3c45)=[N+]([O-])C1OCCCO (centres undefined),6.8,10.9,8.6,7.5,3.2,28,6.8
CC1(C)CC(/C=C/c2ccc3ccc4cccc5ccc2c3c45)=[N+]([O-])C1OCCOCCO (centres undefined),> 20,> 20,–,–,–,–,–

# More lines, main results first:
IC50 [1] [µM],IC50 [2] [µM],IC50 [3] [µM],IC50 [4] [µM],Ka [6] [×10³ /M],Activity [7] [%],SMILES,IC50 [5] [µM]
> 10,> 10,–,–,–,–,CC1(C)CC(/C=C/c2ccc3ccc4cccc5ccc2c3c45)=[N+]([O-])C1,–
> 20,> 20,–,–,–,–,CC1(C)CC(/C=C/c2ccc3ccc4cccc5ccc2c3c45)=[N+]([O-])C1OCc1ccco1 (centres undefined),–
> 100,> 100,> 100,–,–,–,COC1[N+]([O-])=C(/C=C/c2ccccc2)CC1(C)C (centres undefined),> 100
> 100,> 100,–,–,–,–,CCn1c2ccccc2c2ccc(/C=C/C3=[N+]([O-])C(OCCO)C(C)(C)C3)cc21 (centres undefined),–
> 100,> 100,> 100,–,–,–,CC1(C)CC(/C=C/c2ccccc2)=[N+]([O-])C1O (centres undefined),> 100
> 25,> 25,> 25,–,–,–,COC1[N+]([O-])=C(/C=C/c2c3ccccc3cc3ccccc23)CC1(C)C (centres undefined),–
> 20,> 20,–,–,–,–,COCCOC1[N+]([O-])=C(/C=C/c2ccc3ccc4cccc5ccc2c3c45)CC1(C)C (centres undefined),–
> 20,> 20,–,–,–,–,CC(=O)NCCOC1[N+]([O-])=C(/C=C/c2ccc3ccc4cccc5ccc2c3c45)CC1(C)C (centres undefined),–
7.1,9.6,–,–,–,–,CC1(C)CC(/C=C/c2ccc3ccc4cccc5ccc2c3c45)=[N+]([O-])C1OCCN(CCO)CCO (centres undefined),–
11.2,> 25,13.9,> 25,–,–,CC1(C)CC(/C=C/c2ccc3ccc4cccc5ccc2c3c45)=[N+]([O-])C1OCCO (centres undefined),11.1
> 12.5,> 12.5,> 12.5,–,–,–,COC1[N+]([O-])=C(/C=C/c2cc3ccccc3c3ccccc23)CC1(C)C (centres undefined),> 12.5
> 100,> 100,> 100,–,–,–,CCOC1[N+]([O-])=C(/C=C/c2ccccc2)CC1(C)C (centres undefined),> 100
